For data set [1] the following is noted: cited from earlier work.
A short description of data set [2]: Phase 1 dose escalation: toxicity, DLT and MTD of Triapine with doxorubicin. The format is in vivo, human.
Another data set in a line: clinical. The following applies: human.
The nature of data set [3]: Doxorubicin pharmacokinetics in plasma. The following applies: mean.
For data set [4] the following is noted: cited from earlier work. This is another data set of the same source.
The next data set deals with A2780 ovarian tumors. The following applies: twice daily intra-peritoneal for 5-6 days at 8-10 mg/kg/dose; cited from earlier work.
For data set [5], the system named is Madison 109 (M109) lung tumors. As to conditions: twice daily intra-peritoneal for 5-6 days at 8-10 mg/kg/dose; cited from earlier work.
The nature of data set [6]: Triapine pharmacokinetics in plasma and erythrocytes. The format is in vivo, human. As to conditions: for Tmax: 45 mg/m2, Tmax, Triapine 25 or 45 mg/m2, cycle 1 day 1.
For the next data set, the system named is L1210 leukemia. As to conditions: murine models; cited from earlier work.
Where [7] appears, read: 2 hour IV infusions for 5 days of every 28 day cycle.
[8] abbreviates: human, erythrocytes, intravenous.

We go through two compounds from publication PMC3050713 (Cancer chemotherapy and pharmacology, 2008).

Counter-ions that a name gives are not always drawn. Like-named read-outs stand apart in the source and are kept apart here.

As for `COc1cccc2c1C(=O)c1c(O)c3c(c(O)c1C2=O)C[C@@](O)(C(=O)CO)C[C@@H]3O[C@H]1C[C@H](N)[C@H](O)[C@H](C)O1` [doxorubicin, Doxorubicin hydrochloride], the “incidence of CHF” value in data set [1] (cumulative dose 450 mg/m^2) was 4%. In addition, the “incidence of CHF” value in data set [1] (cumulative dose up to 300 mg/m^2) is given as 1%. In addition, the patients with leucopenia result in [1] (doxorubicin 60 mg/m^2 every 21 days) was “approximately 75%”. The “recommended phase II combination dose” value in data set [2] (doxorubicin IV bolus on day 1 immediately following Triapine) is recorded as 60 mg/m^2. The compound also had a half-life in “clinical” (in vivo, iv) of 10.1 h. Moreover, the Tmax in “clinical” (plasma, intravenous) turned out to be 0.2 h. In [3], this compound had a Cl of 252 mL/min/m^2 and a Vss of 219 L/m^2.
On to `NC(=S)NN=Cc1ncccc1N` [Triapine, 3-aminopyridine-2-carboxaldehyde thiosemicarbazone], for which the “major DLT” value in data set [4] (2-hour infusion daily x 5 schedule) is recorded as “transient neutropenia”. In addition, in data set [4] (setting [7]), the “patients with grade 2 anemia” value is on record as 73%. In addition, the “patients with grade 3 anemia” value in [4] (setting [7]) was 22%. The “patients with grade 3 or 4 thrombocytopenia” value in [4] (setting [7]) is given as 22%. For the same compound, the “patients with grade 4 leucopenia in at least one course” value in [4] (setting [7]) is recorded as 93%. Moreover, in [4] (setting [7]), the “single-agent MTD” value is given as 96 mg/m^2. For the same compound, the “toxicities associated with the infusion” value in data set [4] (2 hour infusion of ≥ 140 mg/m^2) was “reversible hypotension, hypoxia, dyspnea, cough, and EKG changes including ST-T wave changes and prolongation of the QT interval”. The DLTs result in [4] (single 2-hour IV infusion every 4 weeks, doses up to 105 mg/m^2) is listed as “no DLTs were observed”. The anti-tumor activity result in [4] (single 2-hour IV infusion every 4 weeks) is recorded as “no anti-tumor activity was observed”; in the data set with L1210 leukemia, “displayed anti-tumor activity”. Moreover, the “recommended phase II dose” value in data set [4] (single agent, daily for 4 days) was 96 mg/m2. The “recommended phase II combination dose” value in data set [2] (Triapine 2 hour infusion on days 1-4) is reported as 25 mg/m^2. The effect on tumors entry (with A2780 ovarian tumors; in [5]) was “effective” throughout. For the same compound, the highest concentration (Cmax) in data set [6] (erythrocytes, dose adjusted, mean) stood at 710 ng/mL; in data set [6] (setting [8]), 710 ± 180 ng/mL; in data set [6] (human, plasma, intravenous), 650 ± 180 ng/mL; in [6] (plasma, dose adjusted, mean) it was 650 ng/mL. Besides, the Cl in [6] (erythrocytes, mean) is on record as 0.34 mL/min/m^2; in [6] (plasma, mean), 0.38 mL/min/m^2. Moreover, the Vss in data set [6] (erythrocytes, mean) was found to be 83 L/m^2; in data set [6] (plasma, mean), 107 L/m^2. Also, the area under the curve AUC(0-inf) in [6] (setting [8]) was 1450 ng·h/mL; in data set [6] (human, plasma, intravenous) it was 1210 ng·h/mL. Moreover, the half-life was 4.2 h in data set [6] (human, erythrocytes, intravenous, 45 mg/m2) and 5.3 h in [6] (human, plasma, iv). In addition, the Tmax in data set [6] (human, erythrocytes, intravenous, erythrocytes, mean) was found to be 0.04 h; in data set [6] (human, plasma, intravenous, plasma, mean), 0.22 ± 0.11 h.
